We go through three molecules from patent publication US5091547A, “Phenylacetic acid derivative and process for making same” (priority 1989, dated 1992).

Where a name gives a salt, the structure may show the parent alone.

Data set [1] relates to ulcers induced by absolute ethanol. The data set is described as follows: Protective activity, ulcers induced by absolute ethanol. Type of data set: in vivo, rats. The source says:
As explained previously, the compound of formula (I), which shall henceforth be referred to herein as LV-216, combines the advantage of anti-inflammatory and protective action.

For data set [2] the following is noted: acid as such; cited from earlier work.
Data set [3] relates to ulcerous lesions in the stomach and intestine. The data set is described as follows: Comparative ulcerogenic action, macroscopic lesion indices (Adami's criterion). Type of data set: in vivo, Female Wistar rats. As to the method:
Group I: control (excipient) (n=8)
Group II: sodium salt 10 mg/kg (n=8)
Group IV: sodium salt 10 mg/kg+zinc sulphate 2.5 mg/kg (n=8) (equivalent doses).
The products were administered orally every day for four consecutive days. The animals were given no food during the 24 hours prior to the last dose.

For `O=C(O)Cc1ccccc1Nc1c(Cl)cccc1Cl` [2-(2,6-dichloroaniline)-phenylacetic acid], the “inhibition of ulcers induced by absolute ethanol (in words)” value in data set [1] (equimolecular dose) is “does not inhibit the ulcers induced by absolute ethanol”. Also, in data set [2], the “Water solubility (in words, background)” value is on record as “practically insoluble in water”.

As for “zinc compound of 2-(2,6-dichloroaniline)-phenylacetic acid [LV-216]”, in data set [1] (11 mg/kg, versus control), the “t test of mm lesion versus control” value is “a (p < 0.01 versus control)”. For the same molecule, the “inhibition of ulcers induced by ethanol (protective action)” value in data set [1] (rats, doses of between 5 and 15 mg/kg) is recorded as at most 80%. For the same molecule, the “gastric tolerance (in words)” value in data set [3] (compared with sodium salt alone or in combination with zinc) is listed as “surprisingly high degree of gastric tolerance, greater than that shown by the sodium salt administered alone or in combination with Zinc”.

Take `O=C(O)Cc1ccccc1Nc1c(Cl)cccc1Cl` [sodium salt, sodium salt of 2-(2,6-dichloroaniline)-phenylacetic acid]: in data set [1] (LV-216 11 mg/kg, sodium salt at equimolecular dose, control 86.3 ± 9.4), the “mm lesion (lesion index)” value amounted to 70.8 ± 8.2 mm. The “% inhibition of ulcers” value in data set [1] (versus control, LV-216 11 mg/kg, sodium salt at equimolecular dose) was determined as 17.9%. For the same molecule, the “Macroscopic lesion index (x ± e)” value in data set [3] (oral, daily for four consecutive days, SS 10 mg/kg, LV-216 11 mg/kg, SS 10 mg/kg + zinc sulphate 2.5 mg/kg, n=8, control 0.4 ± 0.2) turned out to be 4.0 ± 0.4. For the same molecule, in data set [3] (versus control), the “t vs CONTROL (lesion index)” value is recorded as “*** (p < 0.001)” and the “ulcerous index versus control (in words)” value is on record as “statistically significant versus the control groups”.
